From patent US9315487B2, “Tetrahydroquinoline derivatives useful as bromodomain inhibitors” (GlaxoSmithKline LLC, priority 2011, dated 2016)
Values joined by “and” are separate entries in the source; they are usually repeats but may differ in a detail not shown here. Equal values may be shown once.

Columns and labels:
Bromodomain BRD2 = molecular target: T1, Bromodomain BRD2 (Homo sapiens, UniProt P25440); assay: Time Resolved Fluorescence Resonance Energy Transfer (TR-FRET) assay, BRD2; assay type: binding; conditions: BRD2 (1-473), acetylated histone peptide
T1 construct: BRD2 (1-473); made in house; host or cells: E. coli (pET15b vector)
T1 sequence (P25440 1-473): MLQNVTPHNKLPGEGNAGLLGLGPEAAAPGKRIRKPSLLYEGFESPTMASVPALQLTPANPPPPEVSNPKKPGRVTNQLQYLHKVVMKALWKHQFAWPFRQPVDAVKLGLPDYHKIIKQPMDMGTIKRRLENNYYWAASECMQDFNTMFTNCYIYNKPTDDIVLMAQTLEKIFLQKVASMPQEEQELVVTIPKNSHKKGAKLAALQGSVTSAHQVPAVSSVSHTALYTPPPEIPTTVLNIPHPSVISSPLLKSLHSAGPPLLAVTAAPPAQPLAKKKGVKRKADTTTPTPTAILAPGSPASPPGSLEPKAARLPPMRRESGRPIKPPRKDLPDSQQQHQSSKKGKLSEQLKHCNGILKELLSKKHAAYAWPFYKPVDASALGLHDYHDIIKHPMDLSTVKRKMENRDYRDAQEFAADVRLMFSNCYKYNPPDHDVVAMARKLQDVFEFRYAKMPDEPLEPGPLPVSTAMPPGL
Method: (§1) Time Resolved Fluorescence Resonance […] Transfer (TR-FRET) Assay
(§2) The binding of the compounds of formula (I) to Bromodomains BRD2, BRD3 and BRD4 was assessed using a time resolved fluorescent resonance energy transfer binding assay, that measures the binding of an acetylated histone peptide to the bromodomain protein.
(§3) The bromodomain protein, histone peptide and a variable concentration of test compound are incubated together to reach thermodynamic equilibrium.
(§4) The protected peptide was assembled on a solid-phase synthesiser using preloaded Wang resin and utilising standard Fmoc synthesis protocols. The C-terminal lysine was protected by a hyper acid-labile group allowing for its selective removal at the end of the assembly and attachment of the biotin. The crude peptide was obtained after cleavage from the resin with a mixture of trifluoroacetic acid (TFA), triisopropylsilane and water (95:2.5:2.5) for 3 h at room temperature and was then purified using a C18 reverse-phase column utilising a 0.1% TFA-buffered water/acetonitrile gradient. The resulting fractions were analysed and fractions which were >95% pure by analytical HPLC and giving the correct mw (by MALDiTOF mass spectroscopy) were pooled and freeze dried. The final material was analysed by HPLC to confirm purity.
(§5) Recombinant Human Bromodomains (BRD2 (1-473), BRD3 (1-435) and BRD4 (1-477)) were expressed in E. coli cells (in pET15b vector) with a six-His tag at the N-terminal. The His-tagged Bromodomain was extracted from E. coli cells using sonication and purified using a nickel sepharose 6FF column, the proteins were washed and then eluted with 50 mM Tris-Hcl pH8.0. 300 mM NaCl, 1 mM β-mercaptoethanol and 20 mM Imidazole. Further purification was performed by affinity chromatography on a HisTRAP HP column, eluting with a linear 0-500 mM […] gradient, over 20 column volumes. Final purification was completed by Superdex 200 prep grade size exclusion column. Purified protein was stored at −80 C in 20 mM HEPES pH 7.5 and 100 mM NaCl. Protein identity was confirmed by peptide mass fingerprinting and predicted molecular weight confirmed by mass spectrometry.
(§6) Protocol for Bromodomain BRD2, 3 and 4 Assays:
(§7) All assay components were dissolved in buffer composition of 50 mM HEPES pH7.4, 50 mM NaCl and 0.5 mM CHAPS. The final concentration of bromodomain proteins were 100 nM and the histone peptide was 300 nM, these components are premixed and allowed to equilibrate for 1 hour in the dark. 8 μl of this reaction mixture was added to all wells containing 50 nl of various concentrations of test compound or DMSO vehicle (0.5% final) in Greiner 384 well black low volume microtitre plates and incubated in dark for 60 mins at room temperature. […] detection mixture containing anti-6his XL665 labeled antibody and streptavidin labeled with europium cryptate was added to all wells and a further dark incubation of at least 30 mins was performed. Plates were then read on the Envision platereader, (λex=317 nm, donor λEM=615 nm; acceptor λEM=665 nm; Dichroic LANCE dual). Time resolved fluorescent intensity measurements were made at both emission wavelengths and the ratio of acceptor/donor was calculated and used for data analysis. All data was normalized to the mean of 16 high and 16 low control wells on each plate. A four parameter curve fit of the following form was then applied: y=a+((b−a)/(1+(10^x/10^c)^d)
(§8) Where ‘a’ is the minimum, ‘b’ is the Hill slope, ‘c’ is the pIC50 and ‘d’ is the maximum.

Bromodomain BRD3 = molecular target: T2, Bromodomain BRD3 (Homo sapiens, UniProt Q15059); assay: Time Resolved Fluorescence Resonance Energy Transfer (TR-FRET) assay, BRD3; assay type: binding; conditions: BRD3 (1-435), acetylated histone peptide
T2 construct: BRD3 (1-435); made in house; host or cells: E. coli (pET15b vector)
T2 sequence (Q15059 1-435): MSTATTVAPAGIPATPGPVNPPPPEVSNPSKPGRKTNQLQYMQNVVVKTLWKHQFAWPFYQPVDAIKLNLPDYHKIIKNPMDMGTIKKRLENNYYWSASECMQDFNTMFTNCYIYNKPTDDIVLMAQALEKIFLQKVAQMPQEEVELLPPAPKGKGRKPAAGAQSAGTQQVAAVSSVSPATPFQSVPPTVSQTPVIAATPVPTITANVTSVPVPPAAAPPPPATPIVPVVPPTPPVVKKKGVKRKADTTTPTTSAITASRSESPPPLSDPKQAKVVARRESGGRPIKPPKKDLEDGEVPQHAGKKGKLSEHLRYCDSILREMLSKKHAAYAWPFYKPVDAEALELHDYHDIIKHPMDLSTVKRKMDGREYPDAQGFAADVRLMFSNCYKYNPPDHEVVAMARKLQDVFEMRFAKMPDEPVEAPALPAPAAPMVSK
Method: as §1, §2, §3, §4, §5, §6, §7, §8

Bromodomain BRD4 = molecular target: T3, Bromodomain BRD4 (Homo sapiens, UniProt O60885); assay: Time Resolved Fluorescence Resonance Energy Transfer (TR-FRET) assay, BRD4; assay type: binding; conditions: BRD4 (1-477), acetylated histone peptide
T3 construct: BRD4 (1-477); made in house; host or cells: E. coli (pET15b vector)
Method: as §1, §2, §3, §4, §5, §6, §7, §8

[1] = tested on: LPS induced IL-6 secretion from whole blood; assay: Measurement of LPS induced IL-6 secretion from whole blood; assay type: cell-based; conditions: 24 h, LPS 200 ng/ml, IL-6 by immunoassay
Method: Measurement of LPS Induced IL-6 Secretion from Whole Blood
Activation of monocytic cells by agonists of toll-like receptors such as bacterial lipopolysaccharide (LPS) results in production of key inflammatory mediators including IL-6. Such pathways are widely considered to be central to the pathophysiology of a range of auto-immune and inflammatory disorders.
Compounds to be tested are diluted to give a range of appropriate concentrations of which 1 μl of the diluted stocks is added to a 96 well plate. Following addition of whole blood (130 μl) the plates are incubated at 37 degrees (5% CO2) for 30 min before the addition of 10 μl of 2.8 ug/ml LPS, diluted in complete RPMI 1640 (final concentration=200 ng/ml), to give a total volume of 140 ul per well. After further incubation for 24 hours at 37 degrees, 140 μl of PBS are added to each well. The plates are sealed, shaken for 10 minutes and then centrifuged (2500 rpm×10 min). 100 μl of the supernatant are removed and IL-6 levels assayed by immunoassay (typically by MesoScale Discovery technology) either immediately or following storage at −20 degrees. Concentration response curves for each compound was generated from the data and an IC50 value was calculated

[2] = tested on: W12 cells (episomal HPV16 genomes); assay: Measurement of HPV infected cells: W12 cell viability; assay type: cell-based; conditions: Human papillomavirus 16, 48 h, 2 days
Method: (§9) Measurement of HPV Infected Cells The […] cell clone #20850, derived from a low grade cervical […] (Stanley et al., Int. J. Cancer. V. 43. p. 672-676. 1989), carries episomal HPV16 genomes, maintained at approximately 100 copies per cell. Epithelial cell line C33A, which is not infected with any HPV strain was used as a negative control cell to assess non-specific cytotoxicity. […] and C33A cells were cultured with the compound of Example 2 for 2 days and viable cell content monitored by assaying [ATP] at end of this period. Data was normalised to DMSO control treated cells on day 2.

[3] = Measurement of HPV infected cells: C33A negative control cell viability; assay type: cell-based; conditions: human, 3 μM, normalised to DMSO control, read-out: Viability at the maximal tested concentration
Method: as §9

C33A cells = assay: as above; assay type: cell-based; conditions: 2 days, [ATP] assay
Method: as §9

[4] = molecular target: T4, Bromodomain BRD2, BRD3 and BRD4; assay: Fluorescence Anisotropy Binding Assay; set-up: species or system Human; conditions: tested in one or more of the BRD2, BRD3, BRD4 fluorescence anisotropy assays
T4 construct: fused on or other part: six-His tag at the N-terminus
Source text: Fluorescence Anisotropy Binding Assay
The binding of the compounds of formula (I) to Bromodomain BRD2, BRD3 and BRD4 may be assessed using a Fluorescence Anisotropy Binding Assay.
All data was normalized to the mean of 16 high and 16 low control wells on each plate. A four parameter curve fit of the following form was then applied: y=a+((b−a)/(1+(10^x/10^c)^d)
Where ‘a’ is the minimum, ‘b’ is the Hill slope, ‘c’ is the pIC50 and ‘d’ or is the maximum.
Recombinant Human Bromodomains (Bromodomain BRD2 (1-473), Bromodomain BRD3 (1-435) and Bromodomain BRD4 (1-477)) were expressed in E. coli cells (in pET15b vector) with a six-His tag at the N-terminal. The His-tagged Bromodomain was extracted from E. coli cells using 0.1 mg/ml lysozyme and sonication. […]
All components were dissolved in buffer composition of 50 mM HEPES pH7.4, 150 mm NaCl and 0.5 mM CHAPS with final concentrations of Bromodomain 2, 75 nM, fluorescent ligand 5 nM. […] Fluorescence anisotropy was read in Envision (λex=485 nm, λEM=530 nm; Dichroic −505 nM). […]
All components were dissolved in buffer of composition 50 mM HEPES pH7.4, 150 mm NaCl and 0.5 mM CHAPS with final concentrations of Bromodomains 3 75 nM, fluorescent ligand 5 nM. […] Fluorescence anisotropy was read in Envision (λex=485 nm, λEM=530 nm; Dichroic −505 nM). […]

## COCCn1cc(-c2ccc3c(c2)[C@H](Nc2ccc(C#N)cn2)C[C@H](C)N3C(C)=O)cn1 [Example 2, 6-(((2S,4R)-1-acetyl-6-(1-(2-methoxyethyl)-1H-pyrazol-4-yl)-2-methyl-1,2,3,4-tetrahydroquinolin-4-yl)amino)nicotinonitrile]
Bromodomain BRD2
  IC50: 63.1 to 126 nM and 63.1 to 316 nM
Bromodomain BRD3
  IC50: 63.1 to 126 nM and 63.1 to 316 nM
Bromodomain BRD4
  IC50: 63.1 to 126 nM and 63.1 to 316 nM
[1]
  IC50: 200 nM
[2]; 3 μM, normalised to DMSO control, read-out: Viability at the maximal tested concentration
  viability at 3 µM: 34.8%
[2]; [ATP] assay, n=4, read-out: mean pIC50 value, W12 cell viability (converted)
  IC50: 81.3 nM
[3]
  viability at 2 days, 3 µM: 73.5%
C33A cells
  effect on C33A negative control cells (viability): limited effect

## COCCn1cc(-c2ccc3c(c2)[C@H](Nc2cccc(Cl)c2)C[C@H](C)N3C(C)=O)cn1 [Example 7, 1-((2S,4R)-4-((3-chlorophenyl)amino)-6-(1-(2-methoxyethyl)-1H-pyrazol-4-yl)-2-methyl-3,4-dihydroquinolin-1(2H)-yl)ethanone]
Bromodomain BRD2
  IC50: 63.1 to 316 nM
Bromodomain BRD3
  IC50: 63.1 to 316 nM
Bromodomain BRD4
  IC50: 63.1 to 316 nM
[1]
  IC50: 126 to 1000 nM

## COCCn1cc(-c2ccc3c(c2)[C@H](Nc2ccc(Cl)cn2)C[C@H](C)N3C(C)=O)cn1 [Example 5, 1-((2S,4R)-4-((5-chloropyridin-2-yl)amino)-6-(1-(2-methoxyethyl)-1H-pyrazol-4-yl)-2-methyl-3,4-dihydroquinolin-1(2H)-yl)ethanone]
Bromodomain BRD2
  IC50: 63.1 to 316 nM
Bromodomain BRD3
  IC50: 63.1 to 316 nM
Bromodomain BRD4
  IC50: 63.1 to 316 nM
[1]
  IC50: 126 to 1000 nM

## COCCn1cc(-c2ccc3c(c2)[C@H](Nc2cnc(C)cn2)C[C@H](C)N3C(C)=O)cn1 [Example 8, 1-((2S,4R)-6-(1-(2-methoxyethyl)-1H-pyrazol-4-yl)-2-methyl-4-((5-methylpyrazin-2-yl)amino)-3,4-dihydroquinolin-1(2H)-yl)ethanone]
Bromodomain BRD2
  IC50: 63.1 to 316 nM
Bromodomain BRD3
  IC50: 63.1 to 316 nM
Bromodomain BRD4
  IC50: 63.1 to 316 nM
[1]
  IC50: 126 to 1000 nM

## COCCn1cc(-c2ccc3c(c2)[C@H](Nc2ccc(C)cn2)C[C@H](C)N3C(C)=O)cn1 [Example 6, 1-((2S,4R)-6-(1-(2-methoxyethyl)-1H-pyrazol-4-yl)-2-methyl-4-((5-methylpyridin-2-yl)amino)-3,4-dihydroquinolin-1(2H)-yl)ethanone]
Bromodomain BRD2
  IC50: 63.1 to 316 nM
Bromodomain BRD3
  IC50: 63.1 to 316 nM
Bromodomain BRD4
  IC50: 63.1 to 316 nM
[1]
  IC50: 126 to 1000 nM

## COCCn1cc(-c2ccc3c(c2)[C@H](Nc2ccc(C#N)cn2)C[C@H](C)N3C(C)=O)nn1 [Example 3, 6-(((2S,4R)-1-acetyl-6-(1-(2-methoxyethyl)-1H-1,2,3-triazol-4-yl)-2-methyl-1,2,3,4-tetrahydroquinolin-4-yl)amino)nicotinonitrile]
Bromodomain BRD2
  IC50: 63.1 to 316 nM
Bromodomain BRD3
  IC50: 63.1 to 316 nM
Bromodomain BRD4
  IC50: 63.1 to 316 nM
[1]
  IC50: 126 to 1000 nM

## COCCn1cc(-c2ccc3c(c2)[C@H](NC(=O)OC(C)C)C[C@H](C)N3C(C)=O)cn1 [Example 1, 1-methylethyl ((2S,4R)-1-acetyl-2-methyl-6-{1-[2-(methyloxy)ethyl]-1H-pyrazol-4-yl}-1,2,3,4-tetrahydro-4-quinolinyl)carbamate]
[4]
  pIC50: ≥ 6.5
[1]
  IC50: 126 to 1000 nM

## COCCn1ncc(-c2ccc3c(c2)[C@H](Nc2ccc(C#N)cn2)C[C@H](C)N3C(C)=O)n1 [Example 4, 6-(((2S,4R)-1-acetyl-6-(2-(2-methoxyethyl)-2H-1,2,3-triazol-4-yl)-2-methyl-1,2,3,4-tetrahydroquinolin-4-yl)amino)nicotinonitrile]
Bromodomain BRD2
  IC50: 63.1 to 316 nM
Bromodomain BRD3
  IC50: 63.1 to 316 nM
Bromodomain BRD4
  IC50: 63.1 to 316 nM
[1]
  IC50: 126 to 1000 nM
